Data reported in ChEMBL document CHEMBL2029272, “7-Azabicyclo[2.2.1]heptane as a scaffold for the development of selective sigma-2 (σ2) receptor ligands” (Bioorg Med Chem Lett, 2012).

Key:
[1] = target: Sodium-dependent noradrenaline transporter (Homo sapiens) (UniProt P23975); test: Inhibition of NET at 10 uM
[2] = Displacement of [3H]DTG from sigma2 receptor in […]; format: cell-based; details: pc-12
[3] = target: Sodium-dependent serotonin transporter (Homo sapiens, UniProt P31645); test: Inhibition of SERT
[4] = target: T1, Sodium-dependent dopamine transporter (Homo sapiens, UniProt Q01959); test: Inhibition of DAT
[5] = target: D(2) dopamine receptor (Homo sapiens, UniProt P14416); test: Inhibition of D2 dopamine receptor
[6] = Inhibition of NMDA receptor PCP binding site at 10 uM
[7] = system: PC-12; test: Displacement of [3H]DTG from sigma2 receptor in […] at 10 uM; format: cell-based
[8] = target: T1, Sodium-dependent dopamine transporter; test: Inhibition of DAT at 10 uM
[9] = target: Sigma non-opioid intracellular receptor 1 (Rattus norvegicus, UniProt Q9R0C9); test: Displacement of [3H](+)-pentazocine from sigma1 receptor in rat brain homogenate; format: tissue-based
[10] = target: T2, Histamine H3 receptor (Homo sapiens, UniProt Q9Y5N1); test: Inhibition of H3 receptor
[11] = target: T2, Histamine H3 receptor; test: Inhibition of H3 receptor at 10 uM
[12] = target: D(1B) dopamine receptor (Homo sapiens, UniProt P21918); test: Inhibition of D5 dopamine receptor at 10 uM
Sequence of D(1B) dopamine receptor (P21918 whole entry): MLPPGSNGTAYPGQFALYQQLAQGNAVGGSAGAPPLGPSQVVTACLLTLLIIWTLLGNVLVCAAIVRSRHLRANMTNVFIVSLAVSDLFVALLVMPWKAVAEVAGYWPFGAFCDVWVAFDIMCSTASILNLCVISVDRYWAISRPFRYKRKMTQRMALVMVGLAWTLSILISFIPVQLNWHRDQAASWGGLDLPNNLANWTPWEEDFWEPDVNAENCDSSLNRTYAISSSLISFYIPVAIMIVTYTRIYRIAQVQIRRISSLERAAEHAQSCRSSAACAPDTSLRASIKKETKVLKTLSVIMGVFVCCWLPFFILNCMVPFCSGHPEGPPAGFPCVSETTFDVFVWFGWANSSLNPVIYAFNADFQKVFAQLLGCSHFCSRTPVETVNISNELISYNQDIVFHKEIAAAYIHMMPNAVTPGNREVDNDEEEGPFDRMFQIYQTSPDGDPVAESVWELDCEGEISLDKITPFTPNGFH

T2 sequence (Q9Y5N1 whole entry): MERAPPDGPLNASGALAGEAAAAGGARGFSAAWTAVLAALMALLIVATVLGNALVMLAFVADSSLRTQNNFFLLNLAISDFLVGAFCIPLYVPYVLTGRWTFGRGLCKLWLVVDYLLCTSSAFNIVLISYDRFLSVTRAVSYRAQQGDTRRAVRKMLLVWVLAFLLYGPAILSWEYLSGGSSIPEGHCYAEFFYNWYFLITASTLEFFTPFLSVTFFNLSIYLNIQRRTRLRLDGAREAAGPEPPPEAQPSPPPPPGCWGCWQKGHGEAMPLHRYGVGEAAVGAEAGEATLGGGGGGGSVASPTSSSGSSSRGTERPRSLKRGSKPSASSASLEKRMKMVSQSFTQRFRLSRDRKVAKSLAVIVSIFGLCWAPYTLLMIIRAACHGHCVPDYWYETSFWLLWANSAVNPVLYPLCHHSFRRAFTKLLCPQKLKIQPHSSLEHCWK
Sequence of Sodium-dependent serotonin transporter (P31645 whole entry): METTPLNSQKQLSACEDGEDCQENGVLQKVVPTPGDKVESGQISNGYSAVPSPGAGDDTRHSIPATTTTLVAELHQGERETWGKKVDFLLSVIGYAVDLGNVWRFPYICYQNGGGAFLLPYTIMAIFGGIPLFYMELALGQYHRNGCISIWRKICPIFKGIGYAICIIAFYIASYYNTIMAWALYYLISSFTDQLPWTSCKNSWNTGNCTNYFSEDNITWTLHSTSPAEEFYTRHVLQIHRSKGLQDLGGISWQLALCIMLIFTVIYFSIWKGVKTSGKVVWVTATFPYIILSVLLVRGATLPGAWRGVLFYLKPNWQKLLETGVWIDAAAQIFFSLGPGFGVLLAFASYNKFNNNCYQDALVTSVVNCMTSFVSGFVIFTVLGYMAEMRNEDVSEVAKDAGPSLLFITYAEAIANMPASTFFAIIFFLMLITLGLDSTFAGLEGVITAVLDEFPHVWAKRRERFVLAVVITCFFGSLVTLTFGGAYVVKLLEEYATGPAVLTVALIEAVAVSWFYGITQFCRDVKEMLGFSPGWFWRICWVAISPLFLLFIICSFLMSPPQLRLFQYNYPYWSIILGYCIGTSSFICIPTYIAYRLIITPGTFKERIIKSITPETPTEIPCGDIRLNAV
Sequence of D(2) dopamine receptor (P14416 whole entry): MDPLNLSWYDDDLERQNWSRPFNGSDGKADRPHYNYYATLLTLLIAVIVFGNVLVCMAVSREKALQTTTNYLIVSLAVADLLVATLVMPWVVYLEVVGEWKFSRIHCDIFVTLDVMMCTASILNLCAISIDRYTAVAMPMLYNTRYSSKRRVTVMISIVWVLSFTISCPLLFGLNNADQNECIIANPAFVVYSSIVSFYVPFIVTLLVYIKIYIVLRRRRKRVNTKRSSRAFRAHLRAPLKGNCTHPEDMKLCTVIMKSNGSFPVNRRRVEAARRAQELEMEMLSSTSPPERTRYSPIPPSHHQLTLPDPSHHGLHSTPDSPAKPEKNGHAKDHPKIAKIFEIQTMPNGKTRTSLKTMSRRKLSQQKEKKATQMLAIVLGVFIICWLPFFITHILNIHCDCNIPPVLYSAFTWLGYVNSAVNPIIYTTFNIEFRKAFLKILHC
Sequence of Sodium-dependent noradrenaline transporter (Homo sapiens) (P23975 whole entry): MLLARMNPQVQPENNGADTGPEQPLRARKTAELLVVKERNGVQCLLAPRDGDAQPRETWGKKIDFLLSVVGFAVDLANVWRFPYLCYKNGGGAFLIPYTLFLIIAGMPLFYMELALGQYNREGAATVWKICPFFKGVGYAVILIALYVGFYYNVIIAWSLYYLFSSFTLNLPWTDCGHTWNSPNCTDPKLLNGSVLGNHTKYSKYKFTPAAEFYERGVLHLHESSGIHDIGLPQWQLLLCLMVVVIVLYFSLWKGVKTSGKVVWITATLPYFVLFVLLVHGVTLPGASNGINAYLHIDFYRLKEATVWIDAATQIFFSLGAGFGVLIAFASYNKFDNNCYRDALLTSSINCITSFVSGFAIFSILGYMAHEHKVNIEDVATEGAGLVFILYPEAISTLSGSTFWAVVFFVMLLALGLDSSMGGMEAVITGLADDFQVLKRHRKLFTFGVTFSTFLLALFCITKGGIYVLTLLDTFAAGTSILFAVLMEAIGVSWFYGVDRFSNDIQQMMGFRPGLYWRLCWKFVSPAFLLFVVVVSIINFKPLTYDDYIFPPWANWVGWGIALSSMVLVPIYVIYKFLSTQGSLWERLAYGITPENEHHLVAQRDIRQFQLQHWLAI
Sequence of Sigma non-opioid intracellular receptor 1 (Q9R0C9 whole entry): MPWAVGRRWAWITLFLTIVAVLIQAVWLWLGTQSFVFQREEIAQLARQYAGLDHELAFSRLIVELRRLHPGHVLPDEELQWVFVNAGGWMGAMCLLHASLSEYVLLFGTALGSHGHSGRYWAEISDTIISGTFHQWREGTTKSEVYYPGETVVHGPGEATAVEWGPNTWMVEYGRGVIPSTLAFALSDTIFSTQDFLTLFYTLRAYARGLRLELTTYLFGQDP
T1 sequence (Q01959 whole entry): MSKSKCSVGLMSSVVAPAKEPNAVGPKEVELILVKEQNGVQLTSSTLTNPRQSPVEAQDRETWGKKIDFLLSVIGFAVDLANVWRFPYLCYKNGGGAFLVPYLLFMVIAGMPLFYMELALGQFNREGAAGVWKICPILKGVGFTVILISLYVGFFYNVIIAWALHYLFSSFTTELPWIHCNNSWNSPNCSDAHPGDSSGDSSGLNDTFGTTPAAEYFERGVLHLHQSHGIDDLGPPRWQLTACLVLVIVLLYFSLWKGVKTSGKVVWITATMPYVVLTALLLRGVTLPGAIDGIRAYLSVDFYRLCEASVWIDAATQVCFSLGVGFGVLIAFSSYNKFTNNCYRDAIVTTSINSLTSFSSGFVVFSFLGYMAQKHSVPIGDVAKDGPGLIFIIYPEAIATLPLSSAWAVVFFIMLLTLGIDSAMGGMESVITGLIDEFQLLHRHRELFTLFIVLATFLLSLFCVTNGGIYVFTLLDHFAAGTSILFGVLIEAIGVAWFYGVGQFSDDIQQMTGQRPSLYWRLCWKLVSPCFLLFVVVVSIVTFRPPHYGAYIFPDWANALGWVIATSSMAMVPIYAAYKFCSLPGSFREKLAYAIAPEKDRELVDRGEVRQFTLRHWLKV

Row | Compound | inhibition [1] [%] | Ki [2] [nM] | Ki [3] [nM] | Ki [4] [nM] | Ki [5] [nM] | inhibition [6] [%] | inhibition [7] [%] | inhibition [8] [%] | Ki [9] [nM] | Ki [10] [nM] | inhibition [11] [%] | inhibition [12] [%]
1 | Fc1cccc(CCCN2CCCC2)c1 | < 50 | 39 | 4360 | 3310 | 9910 | < 50 |  |  |  |  |  | 
2 | c1cncc(CN2CCCC2)c1 | < 50 |  | > 10000 |  |  | < 50 | < 50 | < 50 |  |  |  | 
3 | c1ccc(CCN2CCCC2)nc1 | < 50 | 3520 | > 10000 |  | > 10000 | < 50 |  | < 50 |  |  |  | 
4 | c1ccc(CCN2CCCC2)cc1 | < 50 | 658 | > 10000 | 2730 |  | < 50 |  |  |  |  |  | 
5 | c1ccc(CCN2C3CCC2CC3)cc1 | < 50 | 131 |  |  | > 1000 | < 50 |  | < 50 | 276 | 7770 |  | 
6 | Fc1cccc(CCCN2C3CCC2CC3)c1 | < 50 | 11.9 |  |  | > 10000 | < 50 |  | < 50 | 120 |  | < 50 | 
7 | Fc1cccc(CN2CCCC2)c1 | < 50 | 1610 | > 10000 |  |  | < 50 |  | < 50 |  |  |  | 
8 | c1ccc(CN2CCCC2)cc1 | < 50 | 852 | > 10000 |  |  | < 50 |  | < 50 |  |  |  | < 50
9 | c1ccc(CN2C3CCC2CC3)cc1 | < 50 | 399 | > 10000 |  | > 10000 | < 50 |  | < 50 |  |  |  | 
10 | COc1ccc(CN2CCCC2)cc1OC | < 50 | 661 | > 10000 |  |  | < 50 |  | < 50 |  |  |  | 
11 | Fc1cccc(CCN2CCCC2)c1 | < 50 | 246 | > 10000 | 2310 | > 10000 | < 50 |  |  |  |  |  | 
12 | Fc1cccc(CCN2C3CCC2CC3)c1 | < 50 | 29.5 |  |  | > 10000 | < 50 |  | < 50 | 103 |  | < 50 | 
13 | Fc1cccc(CN2C3CCC2CC3)c1 | < 50 | 251 | > 10000 |  | > 10000 | < 50 |  | < 50 |  |  | < 50 | 
14 | c1ccc(CCN2C3CCC2CC3)nc1 | < 50 | 517 |  |  | > 10000 | < 50 |  | < 50 | 3830 |  | < 50 | 
15 | COc1ccc(CN2C3CCC2CC3)cc1OC | < 50 | 43.1 | > 10000 |  | > 10000 | < 50 |  | < 50 |  |  | < 50 | 
16 | c1cncc(CN2C3CCC2CC3)c1 | < 50 | 6350 |  |  | > 10000 | < 50 |  | < 50 |  |  | < 50 | 
